ChEMBL document CHEMBL1201862, “PubChem BioAssay data set” (2004)
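Dose response: 5 concentrations. Exposure: 48 h. Format: 96-well plates. Endpoint: linear interpolation; highest concentration if not reached. GI50 marks 50% less growth.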 Active and inactive are the calls of the source. No stated cut-off is given here; in the data, active = GI50 up to about 1.1 µM and inactive = higher.

How the values were obtained:
Assay in all cases: DTP human tumour cell line panel, 48 h
Hs-578T = tested on: Hs-578T
COLO 205 = tested on: COLO 205
A549 = tested on: A549
MCF7 = tested on: MCF7
HL-60 = tested on: HL-60
RXF 393 = tested on: RXF 393
MOLT-4 = tested on: MOLT-4
UACC-257 = tested on: UACC-257
KM12 = tested on: KM12
SNB-19 = tested on: SNB-19
RPMI-8226 = tested on: RPMI-8226
OVCAR-5 = tested on: OVCAR-5
DU-145 = tested on: DU-145
SK-MEL-2 = tested on: SK-MEL-2
NCI/ADR-RES = tested on: NCI/ADR-RES
786-0 = tested on: 786-0
LOX IMVI = tested on: LOX IMVI
T47D = tested on: T47D
M14 = tested on: M14
SR = tested on: SR

Structure (SMILES) | GI50 (Hs-578T) | GI50 (COLO 205) | GI50 (A549) | GI50 (MCF7) | GI50 (HL-60) | GI50 (RXF 393) | GI50 (MOLT-4) | GI50 (UACC-257) | GI50 (KM12) | GI50 (SNB-19) | GI50 (RPMI-8226) | GI50 (OVCAR-5) | GI50 (DU-145) | GI50 (SK-MEL-2) | GI50 (NCI/ADR-RES) | GI50 (786-0) | GI50 (LOX IMVI) | GI50 (T47D) | GI50 (M14) | GI50 (SR)
Nc1ncc(Cc2nc3ccccc3s2)s1 | 15.1 µM (inactive) | 34.4 µM (inactive) | 69.8 µM (inactive) | 35.6 µM (inactive) | > 100 µM (inactive) | > 100 µM (inactive) | > 100 µM (inactive) | 76.7 µM (inactive) | 56.4 µM (inactive) | > 100 µM (inactive) | 18.5 µM (inactive) | > 100 µM (inactive) | > 100 µM (inactive) | > 100 µM (inactive) | 91.6 µM (inactive) | > 100 µM (inactive) | > 100 µM (inactive) | 48.6 µM (inactive) | 42.3 µM (inactive) | –
NNC(=O)c1ccccc1Nc1ccccc1C(=O)NN | 92.9 µM (inactive) | > 100 µM (inactive) | > 100 µM (inactive) | > 100 µM (inactive) | > 100 µM (inactive) | > 100 µM (inactive) | > 100 µM (inactive) | > 100 µM (inactive) | > 100 µM (inactive) | > 100 µM (inactive) | > 100 µM (inactive) | > 100 µM (inactive) | > 100 µM (inactive) | > 100 µM (inactive) | > 100 µM (inactive) | > 100 µM (inactive) | > 100 µM (inactive) | > 100 µM (inactive) | > 100 µM (inactive) | –
CCN(CC)c1ccc(C2Nc3ccc4ccccc4c3C3=C2C(=O)CCC3)cc1 (centres undefined) | 11.2 µM (inactive) | > 100 µM (inactive) | 26.7 µM (inactive) | 40.3 µM (inactive) | – | 17.3 µM (inactive) | > 100 µM (inactive) | > 100 µM (inactive) | > 100 µM (inactive) | 37.3 µM (inactive) | > 100 µM (inactive) | > 100 µM (inactive) | 23.9 µM (inactive) | 35.5 µM (inactive) | 26.6 µM (inactive) | 19.4 µM (inactive) | – | 39 µM (inactive) | > 100 µM (inactive) | –
CC(=O)c1c(O)c(C)c(O)c(Cc2c(O)c3c(c(C(=O)/C=C/c4ccccc4)c2O)OC(C)(C)C=C3)c1O [ROTTLERIN] | 3.65 µM (inactive) | 1.68 µM (inactive) | 0.986 µM (active) | 3.13 µM (inactive) | 2.64 µM (inactive) | – | 1.89 µM (inactive) | 2.21 µM (inactive) | 2.81 µM (inactive) | 2.34 µM (inactive) | 1.79 µM (inactive) | 3.56 µM (inactive) | 3.49 µM (inactive) | 1.34 µM (inactive) | 2.53 µM (inactive) | 2.85 µM (inactive) | 2.86 µM (inactive) | 1.85 µM (inactive) | 3.23 µM (inactive) | –
CSC(=S)NN=C1CCCC1.CSC(=S)NN=C1CCCC1.[Zn+2] | 29.2 µM (inactive) | 34.6 µM (inactive) | 18.8 µM (inactive) | 34.7 µM (inactive) | – | 28.4 µM (inactive) | 9.66 µM (inactive) | 24 µM (inactive) | 41 µM (inactive) | 40.9 µM (inactive) | 11.5 µM (inactive) | 31.3 µM (inactive) | 58.5 µM (inactive) | 22.7 µM (inactive) | > 100 µM (inactive) | 33.5 µM (inactive) | 10.7 µM (inactive) | 33.5 µM (inactive) | 40.1 µM (inactive) | –
NS(=O)(=O)c1cccc(NC(=S)NC(=O)Nc2ccc(Cl)c(Cl)c2)c1 | 17 µM (inactive) | 20 µM (inactive) | 20.5 µM (inactive) | 18.3 µM (inactive) | – | 22.8 µM (inactive) | 12 µM (inactive) | 27.4 µM (inactive) | 15.8 µM (inactive) | 21.2 µM (inactive) | 16.9 µM (inactive) | 25 µM (inactive) | 30.1 µM (inactive) | 23.2 µM (inactive) | 15.9 µM (inactive) | 15.9 µM (inactive) | 16.7 µM (inactive) | 18.1 µM (inactive) | 14.2 µM (inactive) | –
Cl.O=C(O)c1cccnc1 | > 100 µM (inactive) | > 100 µM (inactive) | > 100 µM (inactive) | > 100 µM (inactive) | > 100 µM (inactive) | – | > 100 µM (inactive) | > 100 µM (inactive) | > 100 µM (inactive) | > 100 µM (inactive) | > 100 µM (inactive) | 64.4 µM (inactive) | > 100 µM (inactive) | – | > 100 µM (inactive) | > 100 µM (inactive) | > 100 µM (inactive) | > 100 µM (inactive) | > 100 µM (inactive) | > 100 µM (inactive)
CC1(O)Oc2ccc3ccccc3c2C=C1C(N)=O (centres undefined) | > 100 µM (inactive) | > 100 µM (inactive) | – | > 100 µM (inactive) | > 100 µM (inactive) | 49.2 µM (inactive) | 18.6 µM (inactive) | > 100 µM (inactive) | > 100 µM (inactive) | > 100 µM (inactive) | 33.3 µM (inactive) | – | > 100 µM (inactive) | 40.4 µM (inactive) | – | > 100 µM (inactive) | > 100 µM (inactive) | 36.6 µM (inactive) | 66.4 µM (inactive) | 46.5 µM (inactive)
Cc1ccc(Nc2nc(C)c(C(=O)CC(=O)C(=O)Nc3ccc(Cl)cc3)s2)cc1 | > 100 µM (inactive) | > 100 µM (inactive) | > 100 µM (inactive) | > 100 µM (inactive) | > 100 µM (inactive) | > 100 µM (inactive) | > 100 µM (inactive) | > 100 µM (inactive) | > 100 µM (inactive) | > 100 µM (inactive) | > 100 µM (inactive) | > 100 µM (inactive) | > 100 µM (inactive) | > 100 µM (inactive) | – | > 100 µM (inactive) | > 100 µM (inactive) | > 100 µM (inactive) | > 100 µM (inactive) | > 100 µM (inactive)
CC(=O)Nc1ccc(C(=O)NN2C(=O)C(Cl)C2c2ccc(Cl)cc2)cc1 (centres undefined) | 8.83 µM (inactive) | > 100 µM (inactive) | > 72.4 µM (inactive) | > 100 µM (inactive) | > 100 µM (inactive) | – | > 100 µM (inactive) | > 100 µM (inactive) | > 100 µM (inactive) | 24.2 µM (inactive) | > 100 µM (inactive) | > 74.3 µM (inactive) | > 100 µM (inactive) | 41.6 µM (inactive) | > 100 µM (inactive) | 18.7 µM (inactive) | – | > 100 µM (inactive) | > 100 µM (inactive) | > 100 µM (inactive)
CC1=C2O[C@]3(O)C=C2C(=C(O)C1=O)[C@@H]1O[C@H](CC[C@H](C)/C=C(\C)C[C@@H](C)C[C@@H]3C)[C@H](C)[C@H](O)[C@H]1C [KENDOMYCIN] | 0.289 µM (active) | 0.125 µM (active) | 0.982 µM (active) | 0.179 µM (active) | 0.145 µM (active) | 0.161 µM (active) | 0.097 µM (active) | 0.239 µM (active) | 0.661 µM (active) | 0.977 µM (active) | 0.118 µM (active) | 1.31 µM (inactive) | 0.265 µM (active) | 0.247 µM (active) | 0.311 µM (active) | 0.149 µM (active) | 0.24 µM (active) | – | 0.161 µM (active) | 0.135 µM (active)
O=C(/C=C/c1c(O)nc2ccccc2c1O)CC(=O)C(=O)Nc1cccc(O)c1 | > 100 µM (inactive) | > 100 µM (inactive) | > 100 µM (inactive) | > 100 µM (inactive) | > 100 µM (inactive) | – | > 100 µM (inactive) | > 100 µM (inactive) | > 100 µM (inactive) | > 100 µM (inactive) | > 100 µM (inactive) | > 100 µM (inactive) | > 100 µM (inactive) | > 100 µM (inactive) | > 100 µM (inactive) | > 100 µM (inactive) | > 100 µM (inactive) | > 100 µM (inactive) | > 100 µM (inactive) | –
CSc1nc(-c2ccccc2)nc(C(C#N)C#N)n1 | > 100 µM (inactive) | > 100 µM (inactive) | > 100 µM (inactive) | > 100 µM (inactive) | > 100 µM (inactive) | > 100 µM (inactive) | > 100 µM (inactive) | > 100 µM (inactive) | > 100 µM (inactive) | > 100 µM (inactive) | > 100 µM (inactive) | > 100 µM (inactive) | > 100 µM (inactive) | > 100 µM (inactive) | > 100 µM (inactive) | > 100 µM (inactive) | > 100 µM (inactive) | > 100 µM (inactive) | > 100 µM (inactive) | –
CNC(=S)NN=C1NCCCCN1 | 83.9 µM (inactive) | > 100 µM (inactive) | > 100 µM (inactive) | > 100 µM (inactive) | > 100 µM (inactive) | > 100 µM (inactive) | > 100 µM (inactive) | > 100 µM (inactive) | > 100 µM (inactive) | > 100 µM (inactive) | > 100 µM (inactive) | > 100 µM (inactive) | – | > 100 µM (inactive) | > 100 µM (inactive) | > 100 µM (inactive) | > 100 µM (inactive) | > 100 µM (inactive) | > 100 µM (inactive) | > 100 µM (inactive)
Cc1ccc(C2(c3ccc(F)cc3)OC(=O)c3ccccc32)c(O)c1 (centres undefined) | 20.1 µM (inactive) | 21.1 µM (inactive) | 15.8 µM (inactive) | 17 µM (inactive) | 14 µM (inactive) | – | 10.8 µM (inactive) | 15.6 µM (inactive) | 15.5 µM (inactive) | 16.6 µM (inactive) | 16.4 µM (inactive) | 14.4 µM (inactive) | 15.4 µM (inactive) | 14.7 µM (inactive) | 16.1 µM (inactive) | 15.4 µM (inactive) | 13.9 µM (inactive) | 13.5 µM (inactive) | 15 µM (inactive) | –
